The results in this text go back to patent US9073916B2, “Prodrug forms of kinase inhibitors and their use in therapy” (AUCKLAND UNISERVICES LIMITED, priority 2009, dated 2015).

Molecules are shown by their SMILES. pIC50: −log10 of the molar value. Where two headings read alike, the source gives them in different places.

The subject of data set [1] is A431 xenografts. In words: In vivo efficacy in A431 xenografts. The protocol: (§1) Specific pathogen-free homozygous female CD-1 nude mice (Charles River Laboratories, Wilmington, Mass.) were inoculated subcutaneously with a single cell suspension of A431 cells (5×10^6 cells/100 pt; right flank). When A431 tumour xenografts were established (typically 6-10 days) mice were randomized to treatment groups. All compounds were prepared in lactate buffer (pH4). Mice were dosed by intraperitoneal injection (0.01-0.03 ml/g) using the stated schedules and dose levels. Tumour size and body weights were measured at regular intervals. Tumour volume was calculated as π (length×width^2)/6. […] Differences in RTV^4 were tested for statistical difference by Mann Whitney U test using SigmaStat v3.5.

The target of data set [2] is erbB1^T790M (Homo sapiens, UniProt P00533, T790M). Put plainly: Isolated enzyme inhibition (Invitrogen Z′-LYTE kinase assay). The class given is biochemical. Particulars: 10 μM ATP, duplicate.
Sequence of erbB1^T790M (P00533 25-1210 T790M): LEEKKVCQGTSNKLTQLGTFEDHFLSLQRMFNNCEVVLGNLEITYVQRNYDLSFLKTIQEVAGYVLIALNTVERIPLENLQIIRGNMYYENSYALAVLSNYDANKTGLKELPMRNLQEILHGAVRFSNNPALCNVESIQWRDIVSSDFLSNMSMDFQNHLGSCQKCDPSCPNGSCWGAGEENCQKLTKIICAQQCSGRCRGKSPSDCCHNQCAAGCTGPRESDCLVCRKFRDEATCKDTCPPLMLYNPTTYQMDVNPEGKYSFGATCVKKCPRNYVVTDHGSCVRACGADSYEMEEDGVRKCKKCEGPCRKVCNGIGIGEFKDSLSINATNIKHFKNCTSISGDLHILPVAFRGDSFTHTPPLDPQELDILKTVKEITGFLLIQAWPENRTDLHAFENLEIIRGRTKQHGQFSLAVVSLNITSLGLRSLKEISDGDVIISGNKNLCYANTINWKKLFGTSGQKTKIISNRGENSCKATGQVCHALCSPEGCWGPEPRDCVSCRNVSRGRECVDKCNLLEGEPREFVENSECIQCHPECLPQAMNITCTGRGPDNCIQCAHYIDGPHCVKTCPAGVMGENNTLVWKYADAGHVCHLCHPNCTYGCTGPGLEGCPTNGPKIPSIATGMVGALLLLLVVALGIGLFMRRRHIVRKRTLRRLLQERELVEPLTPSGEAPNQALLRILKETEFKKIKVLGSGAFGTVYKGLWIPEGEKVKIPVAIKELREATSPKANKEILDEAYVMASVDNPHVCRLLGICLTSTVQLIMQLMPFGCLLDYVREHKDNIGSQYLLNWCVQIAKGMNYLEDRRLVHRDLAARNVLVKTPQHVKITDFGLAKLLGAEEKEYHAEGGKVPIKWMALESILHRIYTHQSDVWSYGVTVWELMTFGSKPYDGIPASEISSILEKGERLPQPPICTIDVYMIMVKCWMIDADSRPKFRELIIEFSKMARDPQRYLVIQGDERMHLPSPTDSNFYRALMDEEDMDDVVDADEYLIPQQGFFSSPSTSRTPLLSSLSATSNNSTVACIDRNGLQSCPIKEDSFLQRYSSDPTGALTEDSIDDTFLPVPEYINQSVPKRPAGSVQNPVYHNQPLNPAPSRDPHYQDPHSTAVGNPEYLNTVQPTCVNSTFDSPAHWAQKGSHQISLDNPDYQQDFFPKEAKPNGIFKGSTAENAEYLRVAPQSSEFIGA
Data set [3] can be described thus: Pulse radiolysis (E(1) and fragmentation rate). The class given is physicochemical. Particulars: for kfrag. (fragmentation rate constant upon 1-electron reduction): benzyl-type radical formation; for E (1)/V (one-electron reduction potential): determined against methylviologen.
In data set [4] the target is T1, erbB1 (Homo sapiens, UniProt P00533). In words: Isolated enzyme inhibition (Invitrogen Z′-LYTE kinase assay). The class given is biochemical. Particulars: 10 μM ATP, duplicate.
T1 sequence (P00533 25-1210): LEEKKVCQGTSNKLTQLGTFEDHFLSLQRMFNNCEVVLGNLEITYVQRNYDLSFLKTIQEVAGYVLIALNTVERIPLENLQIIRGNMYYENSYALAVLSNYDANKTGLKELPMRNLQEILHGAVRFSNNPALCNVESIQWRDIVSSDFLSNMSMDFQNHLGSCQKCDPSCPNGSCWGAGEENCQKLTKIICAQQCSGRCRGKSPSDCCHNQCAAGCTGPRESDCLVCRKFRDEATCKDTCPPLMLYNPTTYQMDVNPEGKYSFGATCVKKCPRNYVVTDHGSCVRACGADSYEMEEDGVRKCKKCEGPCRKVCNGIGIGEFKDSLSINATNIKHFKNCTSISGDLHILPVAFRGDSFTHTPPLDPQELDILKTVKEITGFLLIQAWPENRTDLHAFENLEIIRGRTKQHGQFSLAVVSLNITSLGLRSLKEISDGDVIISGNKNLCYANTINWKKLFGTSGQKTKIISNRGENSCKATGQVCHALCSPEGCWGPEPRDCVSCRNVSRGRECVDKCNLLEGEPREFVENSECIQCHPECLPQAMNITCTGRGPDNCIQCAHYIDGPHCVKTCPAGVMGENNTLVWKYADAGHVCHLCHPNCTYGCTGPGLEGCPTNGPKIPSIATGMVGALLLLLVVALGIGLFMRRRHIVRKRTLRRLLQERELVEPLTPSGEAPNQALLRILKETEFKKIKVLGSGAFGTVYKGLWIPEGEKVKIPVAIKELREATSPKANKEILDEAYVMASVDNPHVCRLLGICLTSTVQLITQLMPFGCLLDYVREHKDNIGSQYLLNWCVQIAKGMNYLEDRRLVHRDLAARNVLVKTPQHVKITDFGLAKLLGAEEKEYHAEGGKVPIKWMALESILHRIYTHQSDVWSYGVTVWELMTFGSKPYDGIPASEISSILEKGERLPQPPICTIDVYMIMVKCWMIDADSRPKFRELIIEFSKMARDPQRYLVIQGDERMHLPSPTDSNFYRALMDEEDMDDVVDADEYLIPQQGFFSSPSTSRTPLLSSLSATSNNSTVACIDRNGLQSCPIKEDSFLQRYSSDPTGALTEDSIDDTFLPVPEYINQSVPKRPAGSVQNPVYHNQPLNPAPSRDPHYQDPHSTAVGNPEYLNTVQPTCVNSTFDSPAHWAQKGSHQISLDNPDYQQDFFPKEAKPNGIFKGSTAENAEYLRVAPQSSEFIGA
For data set [5], the target named is T1, erbB1. Put plainly: Cellular erbB1 inhibition: irreversibility wash-out assay in A431 cells. Particulars: 1 μM, 1 hour exposure, then EGF stimulation.
In data set [6] the test system is A431 cells. Put plainly: Cellular growth inhibition (sulforhodamine B).
Data set [7] addresses T1, erbB1. Put plainly: Inhibition of erbB1 autophosphorylation in EGF-stimulated intact A431 cells (Western blot). For orientation: A western blot detects proteins with antibodies after separation by electrophoresis.
Data set [8] relates to SKOV3 xenografts. In words: In vivo efficacy in SKOV3 xenografts. The arrangement: species or system mice. The protocol:
as §1, with “NIH-III” for “CD-1”, “SKOV3” for “A431”, “(1×10^7” for “(5×10^6”, “μL;” for “pt;”, “50-65” for “6-10”
as §1, with “NIH-III” for “CD-1”, “SKOV3” for “A431”, “(1×10^7” for “(5×10^6”, “μL;” for “pt;”, “50-65” for “6-10”, “Compounds 42 and 161” for “All compounds”

Data set [9] has as its system SKBR3 cells. In words: Cellular growth inhibition (sulforhodamine B). The data set is classed as cell-based, Human. To be noted: Table 3.
The nature of data set [10]: Plasma and A431 tumour pharmacokinetics of compounds 11 and 20.
Protocol: A small piece (˜100 mg) of tissue was placed in biopulveriser well (previously cooled in liquid nitrogen) and reduced to fine powder with a 2-3 strong blows to the stainless steel pestle. The frozen powder was collected in pre-weighed microcentrifuge tube (kept on dry ice). […] The microcentrifuge tubes were spun at 13,000 rpm for 10 min to precipitate the cell debris and proteins. […] The analytes were eluted using a gradient of 0.01% formic acid in acetonitrile (80%)-water (20%) mixture and 0.01% formic acid in water (100%) on Zorbax SB 018, rapid resolution HT 3.0×50 mm, 1.8 micron (Agilent) HPLC column with a flow rate of 0.6 ml/min.
A short description of data set [11]: Plasma and A431 tumour pharmacokinetics of compounds 42 and 161.
Data set [12] can be described thus: Chemical stability by HPLC. To be noted: HPLC after 24 h at 37° C.
The mark [13] stands for this setting: single ip dose of 20 at 133 umol/kg.

One may read the pIC50 as the negative decadic logarithm of the IC50, by convention in mol/L. Take `Cn1cnc([N+](=O)[O-])c1C[N+](C)(C)C/C=C/C(=O)Nc1ccc2ncnc(Nc3cccc(Br)c3)c2c1.[Br-]` [Compound 20, (2E)-4-{[4-(3-bromoanilino)-6-quinazolinyl]amino}-N,N-dimethyl-N-[(1-methyl-4-nitro-1H-imidazol-5-yl)methyl]-4-oxo-2-buten-1-ammonium bromide]: the “efficacy by growth delay” value is on record as “superior efficacy to effector 11” in data set [1] (A431 xenografts, equitoxic dose (63% of single dose MTD), q4dx6, IP); “superior efficacy to effector 11” in [8] (133 (20) and 56 (11) umol/kg/dose, q3dx6, IP). In addition, the “tumour growth inhibition (TGI)” value in data set [1] (A431 xenografts, q4dx3 at MTD, IP in lactate buffer) is > 210%. Also, the deaths in data set [1] (A431 xenografts, q4dx6, 63% of single dose MTD) was 0/12; in [8] (q3dx6, 133 (20) and 56 (11) umol/kg/dose), 0/7. The pIC50 in [2] was 6.23; in data set [4], 9.33; in data set [6] (read-out: Cellular Growth Inhibition IC50 A431 Anoxic, Table 3, first 4 hours of 24 hour exposure anoxic), 7.11; in data set [6] (read-out: Cellular Growth Inhibition IC50 A431 Oxic, Table 3, 24 hour exposure entirely oxic), 5.68; in [7] (read-out: cellular erbB1 autophosphorylation IC50, intact A431 cells), 6.26; in data set [9] (24 hour exposure entirely oxic, read-out: Cellular Growth Inhibition IC50 SKBR3 Oxic), 5.41. In [9] (first 4 hours anoxic, read-out: Cellular Growth Inhibition IC50 SKBR3 Anoxic), the pIC50 is 6.66. Moreover, the “kfrag. (fragmentation rate constant upon 1-electron reduction)” value in data set [3] came to 130 ± 10 s⁻¹. The “E (1)/V (one-electron reduction potential)” value in [3] is −0.427 V. The “erbB1 autophosphorylation, cells not washed free of drug” value in data set [5] is reported as “not completely inhibited”. Further, the “SKBR3 Deact.” value in data set [9] is 49 fold. In [9], the “SKBR3 HCR” value was 18.1 fold. Besides, in data set [10] (prodrug 20, out to 72 h), the “stable tumour tissue concentration” value is ~30 µmol/kg. In addition, the “tumour AUC0-72h” value in [10] (prodrug 20 at 133 umol/kg ip, A431 tumour) turned out to be 2245 µmol·h/kg. Besides, the “plasma AUC0-72h” value in [10] (prodrug 20 dosed at 133 umol/kg ip) came to 2016 µM·h. In addition, the “AUC0-72 hr A431 Tumour, Compound 20” value in data set [10] (setting [13]) was 2245 µM·h. The “AUC0-72 hr Plasma, Compound 20” value in data set [10] (setting [13]) worked out at 2016 µM·h.

For `Cn1cnc([N+](=O)[O-])c1C[N+](C)(C)C/C=C/C(=O)Nc1cc2c(Nc3ccc(F)c(Br)c3)ncnc2cn1` [Compound 42, (2E)-4-{[4-(3-bromo-4-fluoroanilino)pyrido[3,4-d]pyrimidin-6-yl]amino}-N,N-dimethyl-N-[(1-methyl-4-nitro-1H-imidazol-5-yl)methyl]-4-oxo-2-buten-1-ammonium bromide], the “tumour growth inhibition (TGI)” value is reported as 400% in [1] (large A431 xenografts, 20 mg/kg/dose, q3dx8, IP); 800% in data set [1] (large A431 xenografts, 40 mg/kg/dose, q3dx8, IP); 786% in data set [1] (large A431 xenografts, 60 mg/kg/dose, q3dx8, IP); 843% in [1] (large A431 xenografts, 80 mg/kg/dose, q3dx8, IP). Further, the “kfrag. (fragmentation rate constant upon 1-electron reduction)” value in [3] worked out at 50 ± 10 s⁻¹. For the same compound, the “E (1)/V (one-electron reduction potential)” value in data set [3] is listed as −0.425±0.008 V. The pIC50 in data set [6] (Homo sapiens, A-431, 4 h, read-out: Cellular Growth Inhibition IC50 A431 Anoxic) was 7.12; in data set [6] (Homo sapiens, A-431, 24 h, read-out: Cellular Growth Inhibition IC50 A431 Oxic), 5.77; in data set [7] it was 6.39. In addition, in data set [6] (Table 9), the “A431 Deact.” value is on record as 56 fold. Besides, the “A431 HCR” value in data set [6] (Table 9) was 60.0 fold. Moreover, the “Deact. erbB1 (fold reduction in cellular inhibition relative to the parent kinase inhibitor)” value in data set [7] (Table 8, A431 cells) was 82 fold. Also, the “efficacy by growth delay” value in data set [8] (100 (42) and 31.6 (161) μmol/kg/dose, q3dx9, IP) is “superior efficacy to compound 161”. The deaths in [8] (q3dx9, 100 (42) and 31.6 (161) μmol/kg/dose) was 0/7. For the same compound, in data set [11] (prodrug 42, out to 72 h), the “stable tumour tissue concentration” value was ~30 µmol/kg. Besides, the “tumour AUC0-72h” value in [11] (prodrug 42 at 100 umol/kg ip, A431 tumour) was 2821 µmol·h/kg. Further, the “plasma AUC fold greater than for administration of inhibitor 161” value in data set [11] (~75% of q3dx4 MTD each) is listed as ~27 fold. For the same compound, the “Stability PBS (percentage parent remaining)” value in data set [12] was 77%. Further, in data set [12], the “Stability Water (percentage parent remaining)” value worked out at 98%. In data set [12], the “Stability α-MEM + FCS (5%) (percentage parent remaining)” value turned out to be 61%.
